The source of these data is PubChem BioAssay AID1053129 (The Scripps Research Institute Molecular Screening Center, 2014).

The source made the active and inactive calls. The rule behind the calls is not given here.

For the test, the target named is Fibrinogen beta chain (Homo sapiens) (UniProt P02675). Put plainly: Tn6 displacement potency at DD(E) complex – biochemical, fluorescence polarization, human fibrin, dose response, late-stage follow-up (AID 1053129). The settings on record: FP, Tn6 cyclic peptide binding to DD(E). In general terms: Polarisation of emitted light reports the rotation of a fluorescent probe.
Sequence of Fibrinogen beta chain (Homo sapiens) (P02675 whole entry, looked up): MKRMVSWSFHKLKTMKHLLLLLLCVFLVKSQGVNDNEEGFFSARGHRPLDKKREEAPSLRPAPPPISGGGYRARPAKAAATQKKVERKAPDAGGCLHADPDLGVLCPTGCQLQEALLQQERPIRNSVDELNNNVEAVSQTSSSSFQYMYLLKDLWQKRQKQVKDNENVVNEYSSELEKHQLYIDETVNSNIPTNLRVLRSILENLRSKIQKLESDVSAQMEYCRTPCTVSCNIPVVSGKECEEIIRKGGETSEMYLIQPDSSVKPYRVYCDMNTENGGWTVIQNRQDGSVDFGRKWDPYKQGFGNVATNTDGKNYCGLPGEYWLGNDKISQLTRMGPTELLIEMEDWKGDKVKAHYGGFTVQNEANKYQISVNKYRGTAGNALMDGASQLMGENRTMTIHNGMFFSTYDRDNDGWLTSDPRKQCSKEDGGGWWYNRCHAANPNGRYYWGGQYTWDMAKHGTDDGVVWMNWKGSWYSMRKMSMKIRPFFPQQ
In the case of `COc1ccc2ccccc2c1C(O)c1nccn1C` (stereo not given), the IC50 was > 83.3 µM (inactive). The same measure for `O=C(O)CCCNc1cc(N2CCN(C(=O)c3ccco3)CC2)c2noc3c2c1C(=O)c1ccccc1-3`: 6.78 µM; for `Cc1cc2cc(CNS(=O)(=O)c3ccc4ccccc4c3)ccc2n1C`: > 83.3 µM (inactive). The same measure for `Cc1cc2c(cc1S(=O)(=O)N1CCN(c3cccc(C)c3C)CC1)OCCN2C`: > 83.3 µM (inactive). For `Cc1cc(C)c(S(=O)(=O)NCCn2c(C)cc3ccccc32)c(C)c1`, the IC50 is > 83.3 µM (inactive). The same measure for `CN1C(=O)NC(c2ccccc2[N+](=O)[O-])C2=C1CCCC2=O` (stereo not given): “inactive”; for `N#CC1=C(N)Oc2ccc3ccc(O)cc3c2C1c1ccsc1` (stereo not given): 3.5 µM; for `NS(=O)(=O)c1ccc(NS(=O)(=O)c2ccc(NC(=O)c3ccc(-c4ccccc4)cc3)cc2)cc1`: 3.43 µM. The same measure for `Cc1cc2cc(CNC(=O)c3ccc(S(=O)(=O)N4CCOCC4)cc3)ccc2n1C`: > 83.3 µM (inactive); for `CCn1c(CSc2n[nH]c(N)n2)nc2cc(C(=O)O)ccc21`: 7.39 µM.

Broadly, the IC50 is the concentration at which inhibition is half-maximal.
